# Measured values reported in patent publication US20220402882A1, “HERBICIDAL COMPOUNDS” (SYNGENTA CROP PROTECTION AG, priority 2019, published 2022).
# Experiments:
# Type in all cases: in vivo
# Conditions in all cases: evaluated after 13 days
# [1] = system: Amaranthus retoflexus (AMARE); assay: Pre-emergence glasshouse herbicide test
# Method: (§1) Seeds of a variety of test species are sown in standard soil in pots (Lolium perenne (LOLPE), Amaranthus retoflexus (AMARE), Abutilon theophrasti (ABUTH), Setaria faberi (SETFA), Echinochloa crus-galli (ECHCG), Ipomoea hederacea (IPOHE)). After cultivation for one day (pre-emergence) or after 8 days cultivation (post-emergence) under controlled conditions in a glasshouse (at 24/16° C., day/night; 14 hours light; 65% humidity), the plants are sprayed with an aqueous spray solution derived from the formulation of the technical active ingredient in acetone/water (50:50) solution containing 0.5% Tween™ 20 (polyoxyethelyene sorbitan monolaurate, CAS RN 9005-64-5). Compounds are applied at 125 g/h unless otherwise indicated. The test plants are then grown in a glasshouse under controlled conditions in a glasshouse (at 24/16° C., day/night; 14 hours light; 65% humidity) and watered twice daily. After 13 days for pre- and post-emergence, the test is evaluated for the percentage damage caused to the plant. The biological activities are shown in the following table on a five-point scale (5=80-100%; 4=60-79%; 3=40-59%; 2=20-39%; 1=0-19%).
# Setaria faberi (SETFA) [2] = assay: Pre-emergence glasshouse herbicide test
# Method: as §1
# [3] = system: Abutilon theophrasti (ABUTH); assay: Pre-emergence glasshouse herbicide test
# Method: as §1
# [4] = system: Ipomoea hederacea (IPOHE); assay: Pre-emergence glasshouse herbicide test
# Method: as §1
# [5] = system: Echinochloa crus-galli (ECHCG); assay: Pre-emergence glasshouse herbicide test
# Method: as §1
# [6] = system: Amaranthus retoflexus (AMARE); assay: Post-emergence glasshouse herbicide test
# Method: as §1
# Setaria faberi (SETFA) [7] = assay: Post-emergence glasshouse herbicide test
# Method: as §1
# [8] = system: Abutilon theophrasti (ABUTH); assay: Post-emergence glasshouse herbicide test
# Method: as §1
# [9] = system: Ipomoea hederacea (IPOHE); assay: Post-emergence glasshouse herbicide test
# Method: as §1
# [10] = system: Echinochloa crus-galli (ECHCG); assay: Post-emergence glasshouse herbicide test
# Method: as §1
SMILES,"percentage damage caused to the plant, AMARE ([1]; 125 g/h)","percentage damage caused to the plant, SETFA (Setaria faberi (SETFA) [2]; 125 g/h)","percentage damage caused to the plant, ABUTH ([3]; 125 g/h)","percentage damage caused to the plant, IPOHE ([4]; 125 g/h)","percentage damage caused to the plant, ECHCG ([5]; 125 g/h)","percentage damage caused to the plant, AMARE ([6]; 125 g/h)","percentage damage caused to the plant, SETFA (Setaria faberi (SETFA) [7]; 125 g/h)","percentage damage caused to the plant, ABUTH ([8]; 125 g/h)","percentage damage caused to the plant, IPOHE ([9]; 125 g/h)","percentage damage caused to the plant, ECHCG ([10]; 125 g/h)","percentage damage caused to the plant, AMARE ([1]; *Applied at 250 g/ha)","percentage damage caused to the plant, SETFA (Setaria faberi (SETFA) [2]; *Applied at 250 g/ha)","percentage damage caused to the plant, ABUTH ([3]; *Applied at 250 g/ha)","percentage damage caused to the plant, IPOHE ([4]; *Applied at 250 g/ha)","percentage damage caused to the plant, ECHCG ([5]; *Applied at 250 g/ha)","percentage damage caused to the plant, AMARE ([6]; *Applied at 250 g/ha)","percentage damage caused to the plant, SETFA (Setaria faberi (SETFA) [7]; *Applied at 250 g/ha)","percentage damage caused to the plant, ABUTH ([8]; *Applied at 250 g/ha)","percentage damage caused to the plant, IPOHE ([9]; *Applied at 250 g/ha)","percentage damage caused to the plant, ECHCG ([10]; *Applied at 250 g/ha)"
CC[S+]([O-])c1c(CC(F)(F)F)ccc(C(=O)Nc2nnnn2C)c1Cl (centres unmarked) [Compound 1.020],5 (5=80-100%),5 (5=80-100%),5 (5=80-100%),5 (5=80-100%),5 (5=80-100%),5 (5=80-100%),5 (5=80-100%),5 (5=80-100%),5 (5=80-100%),5 (5=80-100%),,,,,,,,,,
"CSc1c(OC(F)(F)F)ccc(C(=O)Nc2nnnn2C)c1Cl [Compound 1.005, 2-chloro-3-methylsulfanyl-N-(1-methyltetrazol-5-yl)-4-(trifluoromethoxy)benzamide]",,,,,,,,,,,4 (4=60-79%),1 (1=0-19%),2 (2=20-39%),1 (1=0-19%),1 (1=0-19%),5 (5=80-100%),5 (5=80-100%),5 (5=80-100%),5 (5=80-100%),5 (5=80-100%)
CCS(=O)(=O)c1c(OCC(F)(F)F)ccc(C(=O)Nc2nnc(C)o2)c1C [Compound 2.018],5 (5=80-100%),5 (5=80-100%),5 (5=80-100%),4 (4=60-79%),5 (5=80-100%),5 (5=80-100%),5 (5=80-100%),5 (5=80-100%),5 (5=80-100%),5 (5=80-100%),,,,,,,,,,
Cn1nnnc1NC(=O)c1ccc(OCC(F)F)c([S+](C)[O-])c1Cl (centres unmarked) [Compound 1.034],4 (4=60-79%),4 (4=60-79%),3 (3=40-59%),2 (2=20-39%),4 (4=60-79%),4 (4=60-79%),4 (4=60-79%),4 (4=60-79%),3 (3=40-59%),5 (5=80-100%),,,,,,,,,,
CCSc1c(OC(F)(F)F)ccc(C(=O)Nc2nnc(C)o2)c1Cl [Compound 2.010],5 (5=80-100%),5 (5=80-100%),4 (4=60-79%),1 (1=0-19%),5 (5=80-100%),5 (5=80-100%),5 (5=80-100%),5 (5=80-100%),4 (4=60-79%),5 (5=80-100%),,,,,,,,,,
CCn1nnnc1NC(=O)c1ccc(OCC(F)(F)F)c(S(=O)(=O)CC)c1Cl [Compound 1.065],5 (5=80-100%),5 (5=80-100%),5 (5=80-100%),3 (3=40-59%),5 (5=80-100%),5 (5=80-100%),5 (5=80-100%),5 (5=80-100%),4 (4=60-79%),5 (5=80-100%),,,,,,,,,,
CCCSc1c(OC(F)F)ccc(C(=O)Nc2nnnn2C)c1Cl [Compound 1.066],5 (5=80-100%),5 (5=80-100%),5 (5=80-100%),3 (3=40-59%),5 (5=80-100%),5 (5=80-100%),4 (4=60-79%),5 (5=80-100%),5 (5=80-100%),4 (4=60-79%),,,,,,,,,,
CC(C)CS(=O)(=O)c1c(OC(F)F)ccc(C(=O)Nc2nnnn2C)c1Cl [Compound 1.052],5 (5=80-100%),5 (5=80-100%),5 (5=80-100%),5 (5=80-100%),5 (5=80-100%),4 (4=60-79%),4 (4=60-79%),5 (5=80-100%),5 (5=80-100%),4 (4=60-79%),,,,,,,,,,
CCCS(=O)(=O)c1c(OC(F)F)ccc(C(=O)Nc2nnnn2CC)c1Cl [Compound 1.051],5 (5=80-100%),5 (5=80-100%),5 (5=80-100%),4 (4=60-79%),5 (5=80-100%),5 (5=80-100%),5 (5=80-100%),5 (5=80-100%),4 (4=60-79%),5 (5=80-100%),,,,,,,,,,
Cc1nnc(NC(=O)c2ccc(OC(F)(F)F)c(S(C)(=O)=O)c2Cl)o1 [Compound 2.005],,,,,,,,,,,5 (5=80-100%),5 (5=80-100%),5 (5=80-100%),1 (1=0-19%),5 (5=80-100%),5 (5=80-100%),5 (5=80-100%),5 (5=80-100%),5 (5=80-100%),5 (5=80-100%)
CCSc1c(OCC(F)(F)F)ccc(C(=O)Nc2nnnn2C)c1Cl [Compound 1.037],5 (5=80-100%),3 (3=40-59%),3 (3=40-59%),1 (1=0-19%),4 (4=60-79%),5 (5=80-100%),5 (5=80-100%),5 (5=80-100%),3 (3=40-59%),5 (5=80-100%),,,,,,,,,,
